# Target: T1, h FPR2 (Homo sapiens, UniProt P25090)
# T1 construct: expressed in transfected cells
# T1 sequence (P25090 1-351): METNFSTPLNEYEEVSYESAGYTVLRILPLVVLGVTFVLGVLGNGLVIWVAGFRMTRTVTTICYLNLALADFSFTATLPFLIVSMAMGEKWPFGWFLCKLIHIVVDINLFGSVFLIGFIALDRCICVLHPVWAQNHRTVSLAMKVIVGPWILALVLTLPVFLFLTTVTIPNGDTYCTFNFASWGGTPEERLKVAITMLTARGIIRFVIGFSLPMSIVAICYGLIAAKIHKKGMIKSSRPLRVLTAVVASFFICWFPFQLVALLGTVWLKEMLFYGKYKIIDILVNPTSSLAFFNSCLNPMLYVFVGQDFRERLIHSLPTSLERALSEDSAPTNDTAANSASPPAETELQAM
# Assay: Agonistic activity in hFPR2-Aq-CHO cells (FLIPR Calcium 5 fluorescence assay)
# Type: cell-based
# Conditions: 11 point half log dilution, final assay concentration from 10µM
# How it was run: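 hFPR2-Aq-CHO cells were loaded with Calcium 5 dye for 30 min at 37 °C and equilibrated 10 min at room temperature. Compound (11 points, 10 µM to 100 pM final) was added in HBSS/HEPES/probenecid buffer pH 7.4. Fluorescence rise over basal across 5 min, relative to no-compound wells, gave EC50.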
row,EC50 [nM],Structure (SMILES)
1,0.09,"COc1ccc([C@@H]2CN(CC3(C#N)CC3)CC[C@H]2NC(=O)Nc2ccc(Cl)cc2)nc1 (relative stereo) [Ex-155, trans-1-(4-Chlorophenyl)-3-[1-[(1-cyano-cyclopropyl)-methyl]-3-(5-methoxy-pyridin-2-yl)-piperidin-4-yl]-urea]"
2,11,"COCCCN1CC[C@@H](NC(=O)Nc2ccc(Cl)cc2)[C@H](c2ccc(Cl)s2)C1 (relative stereo) [Ex-91, trans-1-(4-chloro-phenyl)-3-[3-(5-chloro-thiophen-2-yl)-1-(3-methoxy-propyl)-piperidin-4-yl]-urea]"
3,1.2,"COc1ccc([C@@H]2CN(CC3COC3)CC[C@H]2NC(=O)Nc2ccc(Cl)cc2)nc1 (relative stereo) [Ex-109, trans-1-(4-chloro-phenyl)-3-(5-methoxy-1'-oxetan-3-ylmethyl-1',2',3',4',5',6'-hexahydro-[2,3']bipyridinyl-4'-yl)-urea]"
4,5,"COc1ccc([C@@H]2CN(c3ccnc(C)n3)CC[C@H]2NC(=O)Nc2ccc(Cl)cc2)nc1 (relative stereo) [Ex-210, trans-1-(4-chloro-phenyl)-3-[5-methoxy-1'-(2-methyl-pyrimidin-4-yl)-1',2',3',4',5',6'-hexahydro-[2,3']bipyridinyl-4'-yl]-urea]"
5,1.4,"COc1ccc([C@@H]2CN(CC3CC(OC)C3)CC[C@H]2NC(=O)Nc2ccc(Cl)cc2)nc1 (single isomer, unassigned) [Ex-202, trans-1-(4-chloro-phenyl)-3-[5-methoxy-1'-(3-methoxy-cyclobutylmethyl)-1',2',3',4',5',6'-hexahydro-[2,3']bipyridinyl-4'-yl]-urea]"
6,1.2,"COc1ccc([C@@H]2CNCC[C@H]2NC(=O)Nc2ccc(Cl)cc2)nc1 (relative stereo) [Ex-112, trans-1-(4-chlorophenyl)-3-[3-(5-methoxypyridin-2-yl)piperidin-4-yl]urea]"
7,3,"COc1ccc([C@@H]2CN(CCO)CC[C@H]2NC(=O)Nc2cc(C)ns2)nc1 (relative stereo) [Ex-122, trans-1-[1-(2-Hydroxy-ethyl)-3-(5-methoxy-pyridin-2-yl)-piperidin-4-yl]-3-(3-methyl-isothiazol-5-yl)-urea]"
8,6,"COc1ccc([C@H]2CN(c3ccc(F)cc3)C(=O)C[C@H]2NC(=O)Nc2ccc(Cl)cc2)cn1 (relative stereo) [Ex-6, cis-1-(4-chlorophenyl)-3-[1-(4-fluorophenyl)-5-(6-methoxypyridin-3-yl)-2-oxopiperidin-4-yl]urea]"
9,0.4,"COc1ccc([C@@H]2CN(Cc3ccn(S(C)(=O)=O)n3)CC[C@H]2NC(=O)Nc2ccccc2)nc1 (single isomer, unassigned) [Ex-58, trans-3-[1-[(1-methanesulfonyl-1H-pyrazol-3-yl)methyl]-3-(5-methoxypyridin-2-yl)piperidin-4-yl]-1-phenylurea]"
10,0.18,"COc1ccc([C@@H]2CN(CC3CC3)CC[C@H]2NC(=O)Nc2ccc(Cl)cc2)nc1 (single isomer, unassigned) [Ex-172, trans-1-(4-Chlorophenyl)-3-[1-(cyclopropyl-methyl)-3-(5-methoxy-pyridin-2-yl)-piperidin-4-yl]-urea]"
11,13,"COc1ccc([C@@H]2CN(C3COC3)CC[C@H]2NC(=O)Nc2cc(C)ns2)nc1 (relative stereo) [Ex-133, trans-1-[3-(5-Methoxy-pyridin-2-yl)-1-(oxetan-3-yl)-piperidin-4-yl]-3-(3-methyl-isothiazol-5-yl)-urea]"
12,46,"COC1CCC(C(=O)N2CC[C@@H](NC(=O)Nc3ccc(Cl)cc3)[C@H](c3ccc(Cl)s3)C2)CC1 (relative stereo) [Ex-107, trans-1-(4-chloro-phenyl)-3-[3-(5-chloro-thiophen-2-yl)-1-(4-methoxy-cyclohexanecarbonyl)-piperidin-4-yl]-urea]"
13,0.9,"CS(=O)(=O)n1ccc(CN2CC[C@@H](NC(=O)Nc3ccccc3)[C@H](c3ccc(Cl)s3)C2)n1 (single isomer, unassigned) [Ex-56, trans-1-(-3-(5-chlorothiophen-2-yl)-1-((1-(methylsulfonyl)-1H-pyrazol-3-yl)methyl)piperidin-4-yl)-3-phenylurea]"
14,12,"COc1ccc([C@@H]2CN(C(=O)CCN(C)C)CC[C@H]2NC(=O)Nc2ccc(Cl)cc2)nc1 (relative stereo) [Ex-95, trans-1-(4-chloro-phenyl)-3-[1'-(3-dimethylamino-propionyl)-5-methoxy-1',2',3',4',5',6'-hexahydro-[2,3']bipyridinyl-4'-yl]-urea]"
15,6,"COc1ccc([C@H]2CN(c3ccc(F)cc3)C(=O)C[C@H]2NC(=O)Nc2ccc(Cl)cc2)nc1 (relative stereo) [Ex-11, cis-1-(4-chlorophenyl)-3-[1-(4-fluorophenyl)-5-(5-methoxypyridin-2-yl)-2-oxopiperidin-4-yl]urea]"
16,0.5,"COc1ccc([C@@H]2CN(C3(C#N)CC3)CC[C@H]2NC(=O)Nc2ccc(Cl)cc2)nc1 (relative stereo) [Ex-180, trans-1-(4-Chlorophenyl)-3-[1-(1-cyano-cyclopropyl)-3-(5-methoxy-pyridin-2-yl)-piperidin-4-yl]-urea]"
17,0.3,"COc1ccc([C@@H]2CN(Cc3ccn(C)n3)CC[C@H]2NC(=O)Nc2ccc(Cl)cc2)nc1 (single isomer, unassigned) [Ex-39, trans-1-(4-chlorophenyl)-3-[3-(5-methoxypyridin-2-yl)-1-[(1-methyl-1H-pyrazol-3-yl)methyl]piperidin-4-yl]urea]"
18,2,"O=C(Nc1ccc(Cl)cc1)N[C@@H]1CCN(Cc2cncc(Cl)c2)C[C@H]1c1ccc(Cl)s1 (relative stereo) [Ex-71, trans-1-(4-chlorophenyl)-3-(1-((5-chloropyridin-3-yl)methyl)-3-(5-chlorothiophen-2-yl)piperidin-4-yl)urea]"
19,0.4,"COc1ccc([C@@H]2CN(C(=O)c3cnccc3C(F)(F)F)CC[C@H]2NC(=O)Nc2ccc(Cl)cc2)nc1 (single isomer, unassigned) [Ex-99, trans-1-(4-chlorophenyl)-3-[3-(5-methoxypyridin-2-yl)-1-{[4-(trifluoromethyl)pyridin-3-yl]carbonyl}piperidin-4-yl]urea]"
20,0.06,"COc1ccc([C@@H]2CN(CC(F)F)CC[C@H]2NC(=O)Nc2ccc(Cl)cc2)nc1 (single isomer, unassigned) [Ex-35, trans-1-(4-chlorophenyl)-3-[1-(2,2-difluoroethyl)-3-(5-methoxypyridin-2-yl)piperidin-4-yl]urea]"
21,0.04,"COc1ccc([C@@H]2CN(Cc3ccc(C(F)(F)F)nc3)CC[C@H]2NC(=O)Nc2ccc(Cl)cc2)nc1 (relative stereo) [Ex-60, trans-1-(4-chlorophenyl)-3-(3-(5-methoxypyridin-2-yl)-1-((6-(trifluoromethyl)pyridin-3-yl)methyl)piperidin-4-yl)urea]"
22,0.4,"COCCN1CC[C@@H](NC(=O)Nc2ccc(Cl)cc2)[C@H](c2ncc(OC)cc2F)C1 (relative stereo) [Ex-198, trans-1-(4-chloro-phenyl)-3-[3-fluoro-5-methoxy-1'-(2-methoxy-ethyl)-1',2',3',4',5',6'-hexahydro-[2,3']bipyridinyl-4'-yl]-urea]"
23,0.6,"COc1ccc([C@@H]2CN(C(=O)c3ccc(C)nc3)CC[C@H]2NC(=O)Nc2ccc(Cl)cc2)nc1 (single isomer, unassigned) [Ex-54, trans-1-(4-chlorophenyl)-3-[3-(5-methoxypyridin-2-yl)-1-[(6-methylpyridin-3-yl)carbonyl]piperidin-4-yl]urea]"
24,9,"COc1ccc([C@@H]2CN(C(=O)C3COC3)CC[C@H]2NC(=O)Nc2cc(C)ns2)nc1 (relative stereo) [Ex-119, trans-1-[3-(5-Methoxy-pyridin-2-yl)-1-(oxetane-3-carbonyl)-piperidin-4-yl]-3-(3-methyl-isothiazol-5-yl)-urea]"
25,0.7,"COc1ccc([C@@H]2CN(CC(C)(C)O)CC[C@H]2NC(=O)Nc2ccc(Cl)cc2)nc1 (relative stereo) [Ex-120, trans-1-(4-Chlorophenyl)-3-[1-(2-hydroxy-2-methyl-propyl)-3-(5-methoxy-pyridin-2-yl)-piperidin-4-yl]-urea]"
26,0.09,"COc1ccc([C@@H]2CN(Cc3cnn(S(C)(=O)=O)c3)CC[C@H]2NC(=O)Nc2ccc(Cl)cc2)nc1 (relative stereo) [Ex-125, trans-1-(4-Chlorophenyl)-3-[3-(5-methoxy-pyridin-2-yl)-1-[(1-methylsulfonyl-1H-pyrazol-4-yl)-methyl]-piperidin-4-yl]-urea]"
27,32,"COc1ccc([C@@H]2CN(C(=O)C3CCC(O)CC3)CC[C@H]2NC(=O)Nc2ccc(Cl)cc2)nc1 (relative stereo) [Ex-90, trans-1-(4-chloro-phenyl)-3-[1'-(4-hydroxy-cyclohexanecarbonyl)-5-methoxy-1',2',3',4',5',6'-hexahydro-[2,3']bipyridinyl-4'-yl]-urea]"

# Same assay, conditions: agonistic response at 0.1µM
row,activation at 0.1 µM [%],Structure (SMILES)
1,38,"O=C(Nc1ccc(Cl)cc1)N[C@@H]1CCN(C(=O)CCO)C[C@H]1c1ccc(Cl)s1 (relative stereo) [Ex-131, trans-1-(4-Chlorophenyl)-3-[3-(5-chloro-thiophen-2-yl)-1-(3-hydroxy-propanoyl)-piperidin-4-yl]-urea]"
2,10,"COc1ccc([C@@H]2CN(Cc3ccn(C)n3)CC[C@H]2NC(=O)Nc2ccc(Cl)cc2)nc1 (relative stereo) [Ex-40, trans-1-(4-chlorophenyl)-3-[3-(5-methoxypyridin-2-yl)-1-[(1-methyl-1H-pyrazol-3-yl)methyl]piperidin-4-yl]urea]"

# Source: patent publication EP3789378A1, “PIPERIDINES OR PIPERIDONES SUBSTITUTED WITH UREA AND HETEROARYL” (Grünenthal GmbH, priority 2019, dated 2021)
